From ChEMBL document CHEMBL1201862, “PubChem BioAssay data set” (2004)
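Protocol summary: plate cells (96-well), add compound at 5 concentrations, incubate 48 h, interpolate endpoints linearly. Abbreviation: GI50, concentration required for 50% inhibition of growth.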 Active and inactive are the calls of the source. Cut-off read from the data, not from the text of the source: active = GI50 up to about 1.1 µM and inactive = higher.

How the values were obtained:
Experiment in all cases: NCI tumour cell line growth inhibition, 48 h
EKVX = tested on: EKVX
CCRF-CEM = tested on: CCRF-CEM
SK-MEL-5 = tested on: SK-MEL-5
Hs-578T = tested on: Hs-578T
SF-295 = tested on: SF-295
SK-MEL-2 = tested on: SK-MEL-2
ACHN = tested on: ACHN
HL-60 = tested on: HL-60
MDA-MB-231 = tested on: MDA-MB-231
SK-MEL-28 = tested on: SK-MEL-28
A549 = tested on: A549
NCI-H460 = tested on: NCI-H460
MDA-N = tested on: MDA-N
K562 = tested on: K562
COLO 205 = tested on: COLO 205
HOP-92 = tested on: HOP-92
U-251 = tested on: U-251
SK-OV-3 = tested on: SK-OV-3
BT-549 = tested on: BT-549

SMILES	GI50 (EKVX)	GI50 (CCRF-CEM)	GI50 (SK-MEL-5)	GI50 (Hs-578T)	GI50 (SF-295)	GI50 (SK-MEL-2)	GI50 (ACHN)	GI50 (HL-60)	GI50 (MDA-MB-231)	GI50 (SK-MEL-28)	GI50 (A549)	GI50 (NCI-H460)	GI50 (MDA-N)	GI50 (K562)	GI50 (COLO 205)	GI50 (HOP-92)	GI50 (U-251)	GI50 (SK-OV-3)	GI50 (BT-549)
CCCNC1=Nc2ccccc2[C@@H]2N(C)c3ccccc3C(C)C[C@]12C (stereo partly specified)	32.4 µM (inactive)	26 µM (inactive)	15.6 µM (inactive)	19.1 µM (inactive)	16.3 µM (inactive)	13.2 µM (inactive)	23.8 µM (inactive)	33.3 µM (inactive)	15.8 µM (inactive)	18.3 µM (inactive)	28.8 µM (inactive)	24.5 µM (inactive)	20.5 µM (inactive)	20 µM (inactive)	17.9 µM (inactive)				
CCn1cc(C(=O)O)c(=O)c2ccc(C)nc21 [NALIDIXIC ACID]	> 100 µM (inactive)	> 100 µM (inactive)	> 100 µM (inactive)	> 100 µM (inactive)	> 100 µM (inactive)	> 100 µM (inactive)	> 100 µM (inactive)	> 100 µM (inactive)	> 100 µM (inactive)	> 100 µM (inactive)	> 100 µM (inactive)	> 100 µM (inactive)	> 100 µM (inactive)	> 100 µM (inactive)	> 100 µM (inactive)	26.9 µM (inactive)	> 100 µM (inactive)		
O=[N+]([O-])c1ccc2c(c1)nc1n2C(c2c(F)cccc2F)SC1 (stereo unspecified)	> 100 µM (inactive)	> 100 µM (inactive)	> 100 µM (inactive)	> 100 µM (inactive)	> 100 µM (inactive)	> 100 µM (inactive)	> 100 µM (inactive)	> 100 µM (inactive)	> 100 µM (inactive)	> 100 µM (inactive)	> 100 µM (inactive)	> 100 µM (inactive)	> 100 µM (inactive)	> 100 µM (inactive)	> 100 µM (inactive)	62.1 µM (inactive)	> 74.1 µM (inactive)	> 100 µM (inactive)	
O=C(O)CCSc1nnc(COc2ccc(Cl)cc2)n1-c1ccccc1	> 100 µM (inactive)	95.3 µM (inactive)			> 100 µM (inactive)	> 100 µM (inactive)	> 100 µM (inactive)	> 100 µM (inactive)	> 100 µM (inactive)	> 100 µM (inactive)	> 100 µM (inactive)	> 100 µM (inactive)	> 100 µM (inactive)	> 100 µM (inactive)	> 100 µM (inactive)	> 100 µM (inactive)	> 100 µM (inactive)	> 100 µM (inactive)	
CC1=C(C(=O)CC(=O)C(=O)Nc2ccccc2C)Sc2ccccc2N1	> 100 µM (inactive)	> 57.1 µM (inactive)	> 100 µM (inactive)		> 100 µM (inactive)	> 100 µM (inactive)	> 100 µM (inactive)	> 60.5 µM (inactive)		> 100 µM (inactive)	> 69.3 µM (inactive)	> 40.4 µM (inactive)		> 56.9 µM (inactive)	> 42.7 µM (inactive)	> 67.9 µM (inactive)	> 61.2 µM (inactive)	> 100 µM (inactive)	
CC1=CCC[C@H]2[C@](C)(CC3=CC(=O)C4SCCSC4C3=O)[C@@H](C)CC[C@]12C (stereo partly specified)	21.3 µM (inactive)	11 µM (inactive)	13.8 µM (inactive)		10.9 µM (inactive)	1.71 µM (inactive)	18.2 µM (inactive)		13.2 µM (inactive)	18 µM (inactive)	17.2 µM (inactive)	20 µM (inactive)	11.4 µM (inactive)	19.9 µM (inactive)	17.7 µM (inactive)	31.4 µM (inactive)	14.5 µM (inactive)		20.6 µM (inactive)
C[C@H](C1CC2(C)OC2(C)C(=O)O1)[C@H]1CC[C@H]2[C@@H]3[C@@H]4O[C@@H]4[C@@]4(O)CC=CC(=O)[C@]4(C)[C@H]3CC[C@]12C (stereo partly specified)	> 50 µM (inactive)		> 50 µM (inactive)		> 50 µM (inactive)	> 50 µM (inactive)	> 50 µM (inactive)	> 50 µM (inactive)	> 50 µM (inactive)	> 50 µM (inactive)	> 50 µM (inactive)	> 50 µM (inactive)	> 50 µM (inactive)	> 50 µM (inactive)	> 50 µM (inactive)	> 50 µM (inactive)	> 50 µM (inactive)	> 50 µM (inactive)	> 50 µM (inactive)
Oc1cc(-c2cccc(OC(F)(F)F)c2)nc2ccc(N3CCCC3)cc12	0.031 µM (active)	0.00012 µM (active)	0.000209 µM (active)	0.01 µM (active)	< 0.0001 µM (active)	0.000127 µM (active)	0.000622 µM (active)	< 0.0001 µM (active)	0.00156 µM (active)		0.0103 µM (active)	0.0025 µM (active)	< 0.0001 µM (active)	< 0.0001 µM (active)	0.00303 µM (active)	0.0731 µM (active)	< 0.0001 µM (active)	0.000117 µM (active)	
CC(=O)NC1C(OCC(=O)NC(C)C(=O)NC(CCC(=O)NCCCCCNc2ccc([N+](=O)[O-])c3[nH]c4ccccc4c(=O)c23)C(N)=O)C(O)C(CO)OC1(C)OCc1ccccc1 (stereo unspecified)	> 50 µM (inactive)	3.75 µM (inactive)	> 50 µM (inactive)	19.5 µM (inactive)	45.4 µM (inactive)	> 50 µM (inactive)	31.6 µM (inactive)		12 µM (inactive)		> 50 µM (inactive)	18.4 µM (inactive)	> 50 µM (inactive)	4.5 µM (inactive)	> 50 µM (inactive)		39.3 µM (inactive)	39.1 µM (inactive)	> 50 µM (inactive)
OC[C@H](O)[C@@H](OCc1ccccc1)[C@H](NCc1ccccc1)c1cccs1	> 100 µM (inactive)	> 100 µM (inactive)	> 100 µM (inactive)		> 100 µM (inactive)	> 100 µM (inactive)	> 100 µM (inactive)	> 100 µM (inactive)	> 100 µM (inactive)	> 100 µM (inactive)	> 100 µM (inactive)	85.7 µM (inactive)	> 100 µM (inactive)	> 100 µM (inactive)	> 100 µM (inactive)	> 100 µM (inactive)	> 100 µM (inactive)	> 100 µM (inactive)	> 100 µM (inactive)
CC[C@]1(Cc2ccc(OC)c(OC)c2)[C@@H]2C[C@@H](C(=O)OC)ON2O[C@H](OC2CCCC2(c2ccccc2)c2ccccc2)[C@@H]1OC(C)=O (stereo partly specified)	> 100 µM (inactive)	> 100 µM (inactive)	> 100 µM (inactive)		> 100 µM (inactive)	> 100 µM (inactive)	> 100 µM (inactive)		> 100 µM (inactive)	> 100 µM (inactive)	> 100 µM (inactive)	> 100 µM (inactive)		> 100 µM (inactive)	> 100 µM (inactive)		> 100 µM (inactive)	> 100 µM (inactive)	> 100 µM (inactive)
Cc1ccc2oc3c(c(Br)c(Br)n3C)c(=O)c2c1	10.4 µM (inactive)	> 100 µM (inactive)	27.7 µM (inactive)	18.5 µM (inactive)	20.4 µM (inactive)	25.8 µM (inactive)	16.7 µM (inactive)	> 100 µM (inactive)	20.3 µM (inactive)	> 100 µM (inactive)	20.5 µM (inactive)			> 100 µM (inactive)	> 100 µM (inactive)	18.1 µM (inactive)	18.2 µM (inactive)		> 100 µM (inactive)
COc1ccc(CCNC(=S)NC=C2C(=O)c3ccccc3C2=O)cc1OC	> 100 µM (inactive)	> 100 µM (inactive)	> 100 µM (inactive)	14.8 µM (inactive)	> 100 µM (inactive)	> 100 µM (inactive)	> 100 µM (inactive)	93.1 µM (inactive)	68.1 µM (inactive)	> 100 µM (inactive)	> 100 µM (inactive)	10 µM (inactive)	> 100 µM (inactive)	> 100 µM (inactive)	> 100 µM (inactive)	0.741 µM (active)	> 100 µM (inactive)	> 100 µM (inactive)	
COC1CCC(OC2CC(C3(C)CCC4(CC(O)C(C)C(C(C)/C=C(\C)C(=O)C(C)CC(C)C(=O)O)O4)O3)OC3(OC(C4OC(O)(CO)C(C)CC4C)CC3C)C2C)OC1C (stereo unspecified)	0.507 µM (active)	< 0.01 µM (active)	< 0.0201 µM (active)		0.179 µM (active)	0.161 µM (active)	< 0.038 µM (active)	< 0.01 µM (active)	0.0621 µM (active)	0.0362 µM (active)	< 0.0154 µM (active)	< 0.0144 µM (active)	0.0811 µM (active)	< 0.0155 µM (active)	< 0.0154 µM (active)	0.482 µM (active)	< 0.0166 µM (active)	0.528 µM (active)	< 0.0324 µM (active)
O=C(O)C1=CN(c2ccncc2)C(c2ccco2)=CC1c1ccccc1[N+](=O)[O-] (stereo unspecified)	6.58 µM (inactive)	2.69 µM (inactive)	6.65 µM (inactive)	14.4 µM (inactive)	12.8 µM (inactive)	15.7 µM (inactive)	2.1 µM (inactive)	3.19 µM (inactive)	14.6 µM (inactive)	12.8 µM (inactive)	15.6 µM (inactive)	14.6 µM (inactive)		2.58 µM (inactive)	16.6 µM (inactive)	11.9 µM (inactive)	6.31 µM (inactive)	16.3 µM (inactive)	12.1 µM (inactive)
Clc1ccc(-c2nnc(-c3c(Cl)c(Cl)c(Cl)c(Cl)c3-c3nc4ccccc4[nH]3)o2)cc1	54.3 µM (inactive)	59.4 µM (inactive)	40.4 µM (inactive)	> 100 µM (inactive)	48.5 µM (inactive)	> 100 µM (inactive)	97.3 µM (inactive)	> 100 µM (inactive)		> 100 µM (inactive)		44 µM (inactive)	53.5 µM (inactive)	34.3 µM (inactive)	52.2 µM (inactive)	31.7 µM (inactive)		> 100 µM (inactive)	70.1 µM (inactive)
